Here are results for one substance from patent US20250009877A1, “TREATMENT FOR CANCER” (Seagen Inc., priority 2021, published 2025).

In one experiment the test system is interleukin-10 (IL-10). As to the kind of experiment: Induction of immune-dampening cytokines. To be noted: unlike fully agonistic antibodies such as antibody 24.4.1.
For the next experiment, the target named is murine CD40 (Mus musculus, UniProt P27512). Nature of the experiment: Recognition of murine CD40. The experiment is classed as binding.
A further experiment deals with FcγIII receptors. To be noted: compared to the fucosylated parent antibody dacetuzumab; cited from earlier work.
The next experiment deals with CD40 signaling pathway. Conditions: compared to the parent antibody dacetuzumab; cited from earlier work.

Sequence of murine CD40 (P27512 20-289): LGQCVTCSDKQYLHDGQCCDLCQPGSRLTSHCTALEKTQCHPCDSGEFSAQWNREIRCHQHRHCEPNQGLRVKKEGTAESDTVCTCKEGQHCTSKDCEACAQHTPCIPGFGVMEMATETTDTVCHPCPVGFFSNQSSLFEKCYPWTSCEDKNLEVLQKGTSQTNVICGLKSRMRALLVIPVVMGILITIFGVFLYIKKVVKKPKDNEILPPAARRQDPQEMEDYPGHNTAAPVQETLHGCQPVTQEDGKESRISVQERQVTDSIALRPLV

As to “SEA-CD40: non-fucosylated humanized S2C6 anti-CD40 antibody; heavy chain SEQ ID NO: 1, light chain SEQ ID NO: 2; parent antibody dacetuzumab”, the “production of immune-dampening cytokines such as interleukin-10 (IL-10)” value with interleukin-10 (IL-10) was “does not induce production”. In the experiment with murine CD40, the “recognition of murine CD40” value is given as “does not recognize”. Besides, the “binding to FcγIII receptors” value in the experiment on FcγIII receptors is on record as “enhanced binding”. The “ability to activate the CD40 signaling pathway in immune cells” value in the experiment on CD40 signaling pathway was “enhanced ability to activate”.
